Patent publication US20200247897A1, “THERAPEUTIC ANTIBODIES BASED ON MUTATED IGG HEXAMERS” (GENMAB B.V., priority 2017, published 2020)
Where two headings read alike, the source gives them in different places.

Assays:
SNU-C2B = assay: Drug combination screen (ATPlite, Synergy Score), SNU-C2B
LS-411N = assay: Drug combination screen (ATPlite, Synergy Score), LS-411N; format: cell-based, human
SW480 = assay: Drug combination screen (ATPlite, Synergy Score), SW480; format: cell-based, human
HCT 116 = assay: Drug combination screen (ATPlite, Synergy Score), HCT 116
DLD-1 = assay: Drug combination screen (ATPlite, Synergy Score), DLD-1
[1] = compound in combination with IgG1-hDR5-01-G56T-E430G + IgG1-hDR5-05-E430G, SNU-C2B, 72 hour ATPlite, 6x6 matrix
[2] = compound in combination with IgG1-hDR5-01-G56T-E430G + IgG1-hDR5-05-E430G, LS-411N, 72 hour ATPlite, 6x6 matrix
[3] = compound in combination with IgG1-hDR5-01-G56T-E430G + IgG1-hDR5-05-E430G, SW480, 72 hour ATPlite, 6x6 matrix
[4] = compound in combination with IgG1-hDR5-01-G56T-E430G + IgG1-hDR5-05-E430G, HCT 116, 120 hour ATPlite, 6x6 matrix
[5] = compound in combination with IgG1-hDR5-01-G56T-E430G + IgG1-hDR5-05-E430G, DLD-1, 120 hour ATPlite, 6x6 matrix

Row | Molecule | Synergy Score SNU-C2B (SNU-C2B; [1]) | Synergy Score LS-411N (LS-411N; [2]) | Synergy Score SW480 (SW480; [3]) | Synergy Score HCT-116 (HCT 116; [4]) | Synergy Score DLD-1 (DLD-1; [5]) | Synergy Score SNU-C2B (SNU-C2B) | Synergy Score LS-411N (LS-411N) | Synergy Score SW480 (SW480) | Synergy Score HCT-116 (HCT 116) | Synergy Score DLD-1 (DLD-1)
1 | C=CCc1cccc(/C=N/NC(=O)CN2CCN(Cc3ccccc3)CC2)c1O [PAC 1] | 6 | 2.9 | 3.9 | 4.2 | 10.6 | – | – | – | – | –
2 | CC(=O)Nc1nc(C)c(-c2ccc(Cl)c(S(=O)(=O)NCCO)c2)s1 [PIK-93] | – | – | – | – | – | 5.1 | 5.2 | 4.1 | 1.2 | 1
3 | CCCS(=O)(=O)Nc1ccc(F)c(C(=O)c2c[nH]c3ncc(-c4ccc(Cl)cc4)cc23)c1F [PLX-4032] | 0.5 | 0.6 | 1 | 0.1 | 0.6 | – | – | – | – | –
4 | Nc1cccc2c1C(=O)N(C1CCC(=O)NC1=O)C2=O (centres unmarked) [Pomalidomide] | 0.5 | 0 | 0 | 0 | 0.1 | – | – | – | – | –
5 | C[C@]12C=CC(=O)C=C1CC[C@@H]1[C@@H]2C(=O)C[C@@]2(C)[C@H]1CC[C@]2(O)C(=O)CO [Prednisone] | 0.2 | 0.1 | 0 | 0 | 0.1 | – | – | – | – | –
6 | Cn1c(Nc2ccc(C(F)(F)F)cc2)nc2cc(Oc3ccnc(-c4ncc(C(F)(F)F)[nH]4)c3)ccc21 [RAF265] | 3.7 | 10.5 | 4.5 | 2.5 | 5.6 | – | – | – | – | –
7 | O=C1NC(=O)C(c2ccccc2[N+](=O)[O-])=C1Nc1ccc(O)c(Cl)c1 [SB 415286] | 0.7 | 2.1 | 3.8 | 0.8 | 0.4 | – | – | – | – | –
8 | Cn1cc(C2=C(c3ccc(Cl)cc3Cl)C(=O)NC2=O)c2ccccc21 [SB-216763] | 0.3 | 1.1 | 1.4 | 0.1 | 0.5 | – | – | – | – | –
9 | Oc1c2ccccc2c2c3c(cccc13)N=N2 [SP 600125] | 2 | 0.5 | 0.9 | 0.6 | 3.3 | – | – | – | – | –
10 | CC(C)=CCC/C(C)=C/CC/C(C)=C/CSc1ccccc1C(=O)O [Salirasib] | 0.4 | 0 | 0.4 | 0.1 | 0.1 | – | – | – | – | –
11 | CNC(=O)c1cc(Oc2ccc(NC(=O)Nc3ccc(Cl)c(C(F)(F)F)c3)cc2)ccn1 [Sorafenib] | 2.9 | 6 | 3.9 | 0.5 | 2.6 | – | – | – | – | –
12 | Cc1ccccc1CN1C(=O)C2=C(CCN(Cc3ccccc3)C2)N2CCN=C12 [TIC10] | – | – | – | – | – | 13.1 | 23.3 | 3.4 | 2.2 | 15.5
13 | CO[C@H]1C[C@@H]2CC[C@@H](C)[C@@](O)(O2)C(=O)C(=O)N2CCCC[C@H]2C(=O)O[C@H]([C@H](C)C[C@@H]2CC[C@@H](OC(=O)C(C)(CO)CO)[C@H](OC)C2)CC(=O)[C@H](C)/C=C(\C)[C@@H](O)[C@@H](OC)C(=O)[C@H](C)C[C@H](C)/C=C/C=C/C=C/1C [Temsirolimus] | 4.5 | 0.6 | 1.6 | 0.6 | 0.7 | – | – | – | – | –
14 | CC(=O)Nc1cccc(-n2c(=O)n(C3CC3)c(=O)c3c(Nc4ccc(I)cc4F)n(C)c(=O)c(C)c32)c1 [Trametinib] | 0.6 | 0.9 | 7.2 | 4 | 4.1 | – | – | – | – | –
15 | COc1cc2nccc(Oc3ccc(NC(=O)C4(C(=O)Nc5ccc(F)cc5)CC4)cc3)c2cc1OC [XL184] | 1.5 | 5.8 | 6 | 1 | 4.1 | – | – | – | – | –
16 | COCCn1c2c([n+](Cc3cnccn3)c1C)C(=O)c1ccccc1C2=O [YM155] | 11.5 | 9 | 12.1 | 0.5 | 5.2 | – | – | – | – | –
17 | CC(=O)O[C@@]12CO[C@@H]1C[C@H](O)[C@@]1(C)C(=O)[C@H](O)C3=C(C)[C@@H](OC(=O)[C@H](O)[C@@H](NC(=O)OC(C)(C)C)c4ccccc4)C[C@@](O)([C@@H](OC(=O)c4ccccc4)[C@H]21)C3(C)C [docetaxel] | 15.8 | 36.2 | 19.5 | 7.9 | 17.6 | – | – | – | – | –
18 | CCc1c2c(nc3ccc(OC(=O)N4CCC(N5CCCCC5)CC4)cc13)-c1cc3c(c(=O)n1C2)COC(=O)[C@]3(O)CC [irinotecan, reference compound] | 13.4 | 6.8 | 24.7 | 4.4 | 15 | – | – | – | – | –
19 | IC-87114 | 0.1 | 0.2 | 0 | 0.1 | 0 | – | – | – | – | –
